Source: patent publication US20030040510A1, “Selective estrogen receptor modulators in combination with estrogens” (Endorecherche, Inc., priority 2000, published 2003)
Several values for one entry are separate records, joined by “and”; a condition that tells them apart may be missing. Equal entries are not always repeated. Structures can show the parent of a compound that is named as a salt.

What was measured:
[1] = system: ZR-75-1 breast tumor xenografts; test: Growth of human ZR-75-1 breast tumor xenografts in OVX nude mice supplemented with estrone (DHEA, EM-800; Example 1); settings: OVX + E1 (0.5 μg) alone, 9.5 months
[2] = Tissue distribution of radioactivity after a single oral dose of ^14C-EM-800; type: in vivo, female Long-Evans rats; settings: for Drug-derived radioactivity, brain / Drug-derived radioactivity, blood / Drug-derived radioactivity, plasma: 20 mg/kg
Description: It is important to note that some of the radioactivity detected in the brain tissue may be due to residual blood in the tissue. Additionally, the radiochemical purity of the ^14C-EM-800 used for this study was minimally 96.25%.

[3] = system: breast and endometrial tissues; test: Antiestrogens tested for SERM function and estrogenic activity in breast and endometrium; settings: for Estrogenic activity in breast and endometrial tissues: physiological or pharmacological concentrations
Description: As used herein, a selective estrogen receptor modulator (SERM) is a compound that either directly or through its active metabolite functions as an estrogen receptor antagonist (“antiestrogen”) in breast tissue, yet provides estrogenic or estrogen-like effect on bone tissue and on serum cholesterol levels (i.e. by reducing serum cholesterol). Non-steroidal compounds that function as estrogen receptor antagonists in vitro or in human or rat breast tissue (especially if the compound acts as an antiestrogen on human breast cancer cells) is likely to function as a SERM. Conversely, steroidal antiestrogens tend not to function as SERMs because they tend not to display any beneficial effect on serum cholesterol. […] These SERMs may be called “pure SERMs”. […] This second series of SERMs may be called “mixed SERMs”. The unwanted estrogenic activities of these “mixed SERMs”, may be inhibited by addition of pure “SERMs” as shown in FIGS. 6 and 7 in in vitro tests and in FIG. 9 in an in vivo test of breast cancer.

[4] = system: ZR-75-1 breast tumors; test: Growth and response category of human ZR-75-1 breast tumors in OVX nude mice, 7 antiestrogens, 161 days (Example 8); type: in vivo; settings: 161 days
Experimental: The mice (5 per cage) were housed in vinyl cages equipped with air filter lids, which were kept in laminar airflow hoods and maintained under pathogen-limiting conditions. The photoperiod was 12 hours of light and 12 hours of darkness (lights on at 07:15). Cages, bedding and food (Agway Pro-Lab R-M-H Diet #4018) were autoclaved before use. Water was autoclaved and provided ad libitum. Bilateral ovariectomy was performed under isoflurane-induced anesthesia. […] Randomization and treatments were started one week later. […] The 17 groups included two control groups (OVX and OVX+Estrone), seven groups supplemented with an estrone implant and treated with an antiestrogen and eight other groups that received an antiestrogen alone. The estrone implants were then removed from the animals in the ovariectomized control group (OVX) and in groups that were to receive the antiestrogen alone. […] Tamoxifen was purchased from […], Israel) while toremifene citrate was purchased from Orion (Espoo, Finland). […] Animals in both control groups received 0.2 ml of the vehicle alone. The antiestrogen suspensions at the appropriate concentration were prepared each month, stored at 4° C. and used under constant agitation. Powder stock were hermetically stored at 4° C. […] Tumor response was assessed at the end of the study or at death of each animal, if it occurred during the course of the experiment. In this case, only data of mice that survived for at least half of the study (84 days) were used in the tumor response analysis.

[5] = system: ovariectomized female rats; test: Prevention of bone loss, body fat, serum cholesterol and ALP, 26-week treatment of OVX rats (Example 5A, experiment 2); type: in vivo, Sprague-Dawley rats; settings: 26 weeks
Experimental: Ten to twelve week-old female Sprague-Dawley rats (Crl:CD(SD)Br) (Charles River Laboratory, St-Constant, Canada) weighing approximately 220-270 g at start of treatment were used. The animals were acclimatized to the environmental conditions (temperature: 22±3° C.; humidity: 50±20%; 12-h light-12-h dark cycles, lights on at 07:15 h) for at least 1 week before starting the experiments. The animals were housed individually and were allowed free access to tap water and a pelleted certified rodent feed (Lab Diet 5002, Ralston Purina, St-Louis, Mo.). Experiments were conducted in an animal facility approved by the Canadian Council on Animal Care (CCAC) and the Association for Assessment and Accreditation of Laboratory Animal Care (AAALAC) in accordance with the CCAC Guide for Care and Use of Experimental Animals.
On day 1 of the study, the animals of the appropriate groups were bilaterally OVX under isoflurane anesthesia. Tested compounds were administered as suspension in 0.4% methylcellulose by oral gavage. Treatments were initiated on day 2 of the study and were performed once daily during 26 weeks. In both experiments, animals not receiving a test article were treated with the appropriate vehicle alone during the same period.
After 3 months (experiment 1) or 26 weeks (experiment 2) of treatment, individual rats under Isoflurane anesthesia had their whole body skeleton and lumbar spine scanned using dual energy x-ray absorptiometry (DEXA; QDR 4500A, Hologic, Waltham, Mass.) and a Regional High Resolution Scan software. The bone mineral density (BMD) of the lumbar spine (vertebrae L2 to L4) and the total body composition (fat percentage) were determined.
After 3 months (experiment 1) or 26 weeks (experiment 2) of treatment, blood samples were collected at the jugular vein from overnight fasted animals (under Isoflurane anesthesia). Samples were processed for serum preparation and frozen at −80° C. until assay. Serum cholesterol levels and alkaline phospatase activity (ALP) were determined using the Boehringer Mannheim Diagnostic Hitachi 911 Analyzer (Boehringer Mannheim Diagnostic Laboratory Systems).

[6] = 200 μg daily, absence of estrone

Structure (SMILES): C[C@]12CC[C@@H]3c4ccc(O)cc4CC[C@H]3[C@@H]1CCC2=O [E1, Estrone, reference compound]
- Category of response: Complete [1]: 0 (0) Number and (%)
- Category of response: Partial [1]: 0 (0) Number and (%)
- Category of response: Progression [1]: 14 (87.5) Number and (%)
- Category of response: Complete ([1]; listed as estrone): 0 Number and (%)

Structure (SMILES): CC1=C(c2ccc(OC(=O)C(C)(C)C)cc2)[C@H](c2ccc(OCCN3CCCCC3)cc2)Oc2cc(OC(=O)C(C)(C)C)ccc21 [^14C-EM-800]
- Radioactivity in the brain lower than in liver ([2]; 2 hours): 412
- Radioactivity in the brain lower than in plasma ([2]; 2 hours): 13 times
- Radioactivity in the brain lower than in the blood ([2]; 2 hours): 8.4 times
- Radioactivity in the brain lower than in the uterus ([2]; 2 hours): 21 times
- Drug-derived radioactivity, liver ([2]; 2 hr, 20 mg/kg oral): 7.2547 μg EM-800 equiv/g tissue
- Drug-derived radioactivity, uterus ([2]; 2 hr, 20 mg/kg oral): 0.3675 μg EM-800 equiv/g tissue
- Drug-derived radioactivity, liver ([2]; 4 hr, 20 mg/kg oral): 3.2201 μg EM-800 equiv/g tissue
- Drug-derived radioactivity, uterus ([2]; 4 hr, 20 mg/kg oral): 0.2866 μg EM-800 equiv/g tissue
- Drug-derived radioactivity, liver ([2]; 6 hr, 20 mg/kg oral): 2.7462 μg EM-800 equiv/g tissue
- Drug-derived radioactivity, uterus ([2]; 6 hr, 20 mg/kg oral): 0.2757 μg EM-800 equiv/g tissue
- Drug-derived radioactivity, liver ([2]; 8 hr, 20 mg/kg oral): 2.7748 μg EM-800 equiv/g tissue
- Drug-derived radioactivity, uterus ([2]; 8 hr, 20 mg/kg oral): 0.3332 μg EM-800 equiv/g tissue
- Drug-derived radioactivity, liver ([2]; 12 hr, 20 mg/kg oral): 1.8232 μg EM-800 equiv/g tissue
- Drug-derived radioactivity, uterus ([2]; 12 hr, 20 mg/kg oral): 0.2407 μg EM-800 equiv/g tissue
- Drug-derived radioactivity, liver ([2]; 24 hr, 20 mg/kg oral): 0.6391 μg EM-800 equiv/g tissue
- Drug-derived radioactivity, uterus ([2]; 24 hr, 20 mg/kg oral): 0.0837 μg EM-800 equiv/g tissue
- Drug-derived radioactivity, brain ([2]; 24 hr, 20 mg/kg oral): 0 ng EM-800 equiv/g tissue and 0 μg EM-800 equiv/g tissue
- Drug-derived radioactivity, liver ([2]; 36 hr, 20 mg/kg oral): 0.4034 μg EM-800 equiv/g tissue
- Drug-derived radioactivity, uterus ([2]; 36 hr, 20 mg/kg oral): 0.0261 μg EM-800 equiv/g tissue
- Drug-derived radioactivity, blood ([2]; 36 hr, 20 mg/kg oral): 0 ng EM-800 equiv/g tissue and 0 μg EM-800 equiv/g tissue
- Drug-derived radioactivity, brain ([2]; 36 hr, 20 mg/kg oral): 0 ng EM-800 equiv/g tissue and 0 μg EM-800 equiv/g tissue
- Drug-derived radioactivity, plasma ([2]; 36 hr, 20 mg/kg oral): 0 ng EM-800 equiv/g tissue and 0 μg EM-800 equiv/g tissue
- Drug-derived radioactivity, liver ([2]; 48 hr, 20 mg/kg oral): 0.2196 μg EM-800 equiv/g tissue
- Drug-derived radioactivity, uterus ([2]; 48 hr, 20 mg/kg oral): 0.0238 μg EM-800 equiv/g tissue
- Drug-derived radioactivity, blood ([2]; 48 hr, 20 mg/kg oral): 0 ng EM-800 equiv/g tissue and 0 μg EM-800 equiv/g tissue
- Drug-derived radioactivity, brain ([2]; 48 hr, 20 mg/kg oral): 0 ng EM-800 equiv/g tissue and 0 μg EM-800 equiv/g tissue
- Drug-derived radioactivity, plasma ([2]; 48 hr, 20 mg/kg oral): 0 ng EM-800 equiv/g tissue and 0 μg EM-800 equiv/g tissue
- Drug-derived radioactivity, liver ([2]; 72 hr, 20 mg/kg oral): 0.1326 μg EM-800 equiv/g tissue
- Drug-derived radioactivity, uterus ([2]; 72 hr, 20 mg/kg oral): 0 μg EM-800 equiv/g tissue
- Drug-derived radioactivity, blood ([2]; 72 hr, 20 mg/kg oral): 0 ng EM-800 equiv/g tissue and 0 μg EM-800 equiv/g tissue
- Drug-derived radioactivity, brain ([2]; 72 hr, 20 mg/kg oral): 0 ng EM-800 equiv/g tissue and 0 μg EM-800 equiv/g tissue
- Drug-derived radioactivity, plasma ([2]; 72 hr, 20 mg/kg oral): 0 ng EM-800 equiv/g tissue and 0 μg EM-800 equiv/g tissue
- Drug-derived radioactivity, liver ([2]; 96 hr, 20 mg/kg oral): 0.0944 μg EM-800 equiv/g tissue
- Drug-derived radioactivity, uterus ([2]; 96 hr, 20 mg/kg oral): 0 μg EM-800 equiv/g tissue
- Drug-derived radioactivity, blood ([2]; 96 hr, 20 mg/kg oral): 0 ng EM-800 equiv/g tissue and 0 μg EM-800 equiv/g tissue
- Drug-derived radioactivity, brain ([2]; 96 hr, 20 mg/kg oral): 0 ng EM-800 equiv/g tissue and 0 μg EM-800 equiv/g tissue
- Drug-derived radioactivity, plasma ([2]; 96 hr, 20 mg/kg oral): 0 ng EM-800 equiv/g tissue and 0 μg EM-800 equiv/g tissue
- Drug-derived radioactivity, liver ([2]; 168 hr, 20 mg/kg oral): 0.0348 μg EM-800 equiv/g tissue
- Drug-derived radioactivity, uterus ([2]; 168 hr, 20 mg/kg oral): 0 μg EM-800 equiv/g tissue
- Drug-derived radioactivity, blood ([2]; 168 hr, 20 mg/kg oral): 0 ng EM-800 equiv/g tissue and 0 μg EM-800 equiv/g tissue
- Drug-derived radioactivity, brain ([2]; 168 hr, 20 mg/kg oral): 0 ng EM-800 equiv/g tissue and 0 μg EM-800 equiv/g tissue
- Drug-derived radioactivity, plasma ([2]; 168 hr, 20 mg/kg oral): 0 ng EM-800 equiv/g tissue and 0 μg EM-800 equiv/g tissue
- Total drug-derived radioactivity in the brain ([2]; female Long-Evans rats, 20 mg/kg oral): not detected after 12 hr post dose

Structure (SMILES): CN(C)CCOc1ccc(/C(=C(/CCCl)c2ccccc2)c2ccc(O)cc2)cc1 [OH-Toremifene, (Z)-(2)-2-[4-(4-chloro-1-(4-hydroxyphenyl)-2-phenyl-1-butenyl)phenoxy]-N,N-dimethyletha namine]
- Function as SERM [3]: found to function as SERMs
- Estrogenic activity in breast and endometrial tissues [3]: have some estrogenic activities

Structure (SMILES): Cc1c(-c2ccc(O)cc2)n(Cc2ccc(OCCN3CCCCCC3)cc2)c2ccc(O)cc12 [TSE 424]
- Function as SERM [3]: found to function as SERMs

Structure (SMILES): CCC(=C(c1ccc(O)cc1)c1ccc(OCCN(C)C)cc1)c1ccccc1 [4-hydroxy-Tamoxifen, 1-(4-dimethylaminoethoxyphenyl)-1-(4-hydroxyphenyl)-2-phenyl-but-1-ene]
- Function as SERM [3]: found to function as SERMs
- Estrogenic activity in breast and endometrial tissues [3]: have some estrogenic activities

Structure (SMILES): CN(C)CCOc1ccc(/C(=C(/CCCl)c2ccccc2)c2ccccc2)cc1 [Toremifene, (Z)-2-[4-(4-Chloro-1,2-diphenyl-1-butenyl)phenoxy]-N,N-dimethylethanamine]
- Progressing tumors ([4]; 50 μg daily + estrone): 89%
- Increase of average tumor size over baseline [4, 6]: 86%
- Progressing tumors [4, 6]: 21%
- Function as SERM [3]: found to function as SERMs
- Estrogenic activity in breast and endometrial tissues [3]: have some estrogenic activities

Structure (SMILES): Cl.Oc1ccc(-c2sc3cc(O)ccc3c2Oc2ccc(OCCN3CCCCC3)cc2)cc1 [LY 335 563, 6-hydroxy-3-[4-[2-(1-piperidinyl)ethoxy]phenoxyl]-2-(4-hydroxyphenyl) benzo[b]thiopene hydrochloride]
- Function as SERM [3]: found to function as SERMs
- Estrogenic activity in breast and endometrial tissues [3]: have some estrogenic activities

Structure (SMILES): C[C@]12CC[C@@H]3c4ccc(O)cc4C[C@@H](CCCCCCCCC[S+]([O-])CCCC(F)(F)C(F)(F)F)[C@H]3[C@@H]1CC[C@@H]2O (stereo partly shown) [ICI 182,780]
- Function as SERM [3]: not to function as a-SERMs

Structure (SMILES): Oc1ccc2c(c1)CC[C@H](c1ccccc1)[C@@H]2c1ccc(OCCN2CCCC2)cc1 (racemic) [Lasofoxifene, cis-1R-[4′-pyrrolidino-ethoxyphenyl]-2S-phenyl-6-hydroxy-1,2,3,4,-tetrahydronaphthalene D-(−)-tartrate salt]
- Function as SERM [3]: found to function as SERMs
- Serum cholesterol ([5]; OVX rats): 0.60 ± 0.02 mmol/L
- OVX-induced increase on serum cholesterol levels ([5]; alone or in combination with Premarin): completely prevented

Structure (SMILES): CC/C(=C(\c1ccccc1)c1ccc(OCCN(C)C)cc1)c1ccccc1 [Tamoxifen, (Z)-2-[4-(1,2-diphenyl-1-butenyl)phenoxy]-N,N-dimethylethanamine]
- Progressing tumors ([4]; 50 μg daily + estrone): 65%
- Progressing tumors [4, 6]: 62%
- Function as SERM [3]: found to function as SERMs
- Estrogenic activity in breast and endometrial tissues [3]: have some estrogenic activities
